Test results from patent publication US20050215531A1, “Use of edg receptor binding agents in cancer” (priority 2002, published 2005).
Where a name gives a salt, the structure may show the parent alone.

Key:
[1] = test system: human A375 melanoma cells; assay: Combination with a VEGF-R protein tyrosin kinase inhibitor, A375 melanoma in nude mice; format: in vivo; conditions: treated in a similar way (same doses) alone or combined
[2] = test system: human MDA-MB-435 breast tumors; assay: Combination with a VEGF-R protein tyrosin kinase inhibitor, MDA-MB-435 breast tumors in nude mice; format: in vivo; conditions: 2 weeks, Compound C HCl 2.5 mg/kg i.v. 5×/week, phthalazine succinate 100 mg/kg p.o. 5×/week, or both
Method: (§1) Antitumor activity is expressed as T/C% (mean increase in tumor volumes of treated animals divided by the mean increase of tumor volumes of control animals multiplied by 100).
Nude mice transplanted with human MDA-MB-435 breast tumors are treated for 2 weeks with a VEGF-R protein tyrosin kinase inhibitor, e.g. 1-(4-chloroanilino)-4-(4-pyridylmethyl)phthalazine succinate, at a dose of 100 mg/kg p.o. 5×/week, a S1P receptor agonist, e.g. Compound C (hydrochloride salt), at a dose of 2.5 mg/kg i.v. 5×/week, or a combination of both. Antitumor is expressed as T/C% as indicated above.

[3] = test system: human A375 melanoma cells; assay: In vivo antitumor activity, A375 melanoma transplanted into BALB/c-nu/nu mice
Excerpt: as §1
Aliquots of cancer cells (1×10^7), e.g. human A375 melanoma cells, are transplanted into BALB/c-nu/nu mice. When the tumors have reached ca. 10×10 mm in size, the animals are assigned randomly to four subgroups and the treatment with a compound of formula I is initiated. Animals are sacrificed after 2 week treatment, at which times tumors and tissues are harvested and prepared for morphological and molecular analysis. The size of the tumors is determined with a caliper.

ERK½ MAP kinases = assay: Western blot, activation of ERK½ MAP kinases in HUVEC; format: cell-based, human; conditions: endothelial cells, 5 minute to 60 minute treatment
Method: (§2) Human umbilical vein endothelial cells (HUVEC) are cultured at 37° C. and 5% CO2 in medium M199 supplemented with 20% SCS (HyClone, Logan, Utah), 1 U/ml heparin, 50 μg/ml ECGS, 2 mM glutamine, 100 U/ml penicillin and 0.1 mg/ml streptomycin. Cells are used for experiments up to passage number 5. Short-starved HUVEC are obtained by starving with 1% SCS-containing M199 for 5 h. Recombinant human VEGF165 is obtained from PromoCell (Heidelberg, Germany). Phospho-specific ERK½, p3B kinase polyclonal antibodies, nonphospho ERK½ antibodies and LumiGLO chemiluminescent reagent are from New England BioLabs (Beverly, Mass.), polyclonal IKB antibodies from Santa Cruz Biotechnology (Santa Cruz, Calif.). Peroxidase-conjugated donkey anti-rabbit immunoglobulin G (IgG) and sheep anti-mouse IgG are purchased from Amersham LIFE SCIENCE (Amersham Place, England). lmmobilon-P transfer membranes are products of Millipore (Bedford, Mass.). S is obtained from Sigma Chemical Co.; S1P is from Biomol. Compound A-phosphate stock solution is prepared by the following protocol. Compound A-phosphate is dissolved in methanol tracing with concentrated HCl (0.5 mg Compound A-phosphate in 500 μl of methanol plus 2 μl of HCl). Solvent from the resulting solution is evaporated under vacuum and the residue obtained is redissolved (variant 1) in 0.1% of defatted BSA solution in sterile deionized water (500 μl) or (variant 2) in 0.5% Triton X-100 in deionized water. The resulting stock solutions (2.5 mM) are sonicated and stored at 4° C.
After various treatments, the cells are washed twice with cold PBS, lysed in 100 μl of Laemmli buffer, scraped and heated for 5 min at 95° C. Total cell lysates are separated by SDS-PAGE and transferred to Immobilon-P membrane. The membrane is blocked for 30 minutes with PBS containing 0.1% Tween-20 and 3% skim milk and incubated for 1 hour at RT with a primary antibody diluted in blocking buffer. The membrane obtained is washed three times for 5 minutes with PBS containing 0.1% Tween-20 and incubated with peroxidase-conjugated secondary antibody for 1 hour at RT. After a washing step, the membrane is incubated for 1 minute with ECL reagent and exposed to film as required. For reprobing with another antibody, the membrane is washed twice in PBS, stripped for 30 min at 55° C. with stripping buffer (62.5 mM Tris-HCL, pH 6.8, 2% SDS, 100 mM 2-mercaptoethanol) and washed three times for 5 minutes with PBS at RT. The membrane is stored wet wrapped in SaranWrap at 4° C. after each immunodetection.
Signal transduction via MAP idnases plays a key role in a variety of endothelial cell functions. Treatment of HUVEC with Compound A-phosphate at 0.5 μM may result in transient activation of ERK½ with a peak of phosphorylation/activation at 10 minutes and returning to baseline by 20 minutes (see e.g. FIG. 5). No activation of p38 kinase and JNK½ by Compound A-phosphate is detectable in HUVEC. […] To estimate the possible role of inflammatory/NFκB-dependent program in Compound A-phosphatestimulated bioresponses of endothelial cells, the membranes are reprobed with anti-IκB antibodies. IκB levels are not affected by Compound A-phosphate treatment.

HUVEC [4] = assay: In vitro angiogenesis (tube formation) assay on Matrigel; format: cell-based, human; conditions: for effect on VEGF-triggered tube formation: high concentrations, 2-5 μM
Method: as §2
Morphogenesis of endothelial cells into capillary-like structures on Growth Factor Reduced Matrigel Matrix (BD Bioscience) is performed according to the manufacture procedure. Briefly, HUVEC are trypsinized, resuspended in serum-free Ml 99 medium containing soybean trypsin inhibitor (1 mg/ml, Sigma). After centrifugation cells are resuspended in serum-free medium at a density 0.5×10^5 cells/ml, and cell suspension is seeded in 96-well cell culture plates (Costar, Corning Incorporated) precoated with 50 μl of Matrigel in the absence or presence of various stimuli: VEGF at 1.5 nM, S1P at 0.1-2 μM, S at 0.5-2 μM, Compound A at 0.5-2 μM, and Compound A-phosphate at 0.1-2 μM. Eight hours later, cells on Matrigel are fixed with 3% formaldehyde in PBS and kept at 4° C. Results are quantitated from images made with a Nikon Diaphot microscope equipped with a cooled CCD camera (Kappa GmbH, Gleichen, Germany) by direct counting of branching points on two microscopic fields from each well done in duplicates.
The effect of Compound A and Compound A-phosphate on morphogenic differentiation of endothelial cells is determined using an in vitro angiogenesis assay on Matrigel. Endothelial cell morphogenesis is a complex process that requires cell-extracellular matrix interactions, followed by matrix remodelling, stimulated migration, cell-cell interactions, and perivascular proteolysis. […] This may be interpreted as a possible involvement of EDG-1 (S1P1) receptor-mediated signaling events in Compound A-phosphate-stimulated bioresponses (see e.g. FIG. 3). […] Importantly, high concentrations of S and Compound A (2-5 μM) inhibited VEGF-triggered tube formation.

tissue factor = assay: Clotting assay, tissue factor activity on HUVEC; format: cell-based, human; conditions: compound alone or in combinations, 0.5-2 μM, 4 hours
Method: as §2
Cells are seeded in 6-well plates at 80-90% confluency and grown overnight. Cells are scraped from the plates and analyzed for tissue factor activity according to the method as described in Clauss, M., J. Biol. Chem. 271,17629-17634 (1996), Mechtcheriakova, D., Blood 93,3811-3823 (1999). Briefly, after induction for 4 hours with VEGF (1.5 nM), TNF-α (100 U/ml), S (0.5-2 μM), S1P (0.5-2 μM), Compound A (0.5-2 μM), and Compound A-phosphate (0.5-2 μM), cells are washed twice and then scraped in 1 ml clotting buffer (12 mM sodium acetate, 7 mM diethylbarbitate and 130 mM sodium chloride; pH 7.4). 50 μl of resuspended cells are mixed with 50 μl of citrated plasma, and clotting times are determined after recalcfication with 50 μl of 20 mM CaCl2 solution at 37° C. TF-equivalents are determined by using a standard curve obtained from rabbit brain thromboplastin.
An important characteristic feature of both classical inflammatory stimulus TNF-α and the main angiogenic growth factor VEGF on endothellal cells is their potency to upregulate tissue factor. Compound A, Compound A-phosphate, S or S1P are tested whether they also do induce tissue factor on HUVEC. […] The data obtained together indicate that Compound A, Compound A-phosphate, S and S1P mechanistically work distinctly to anglogenic VEGF and inflammatory TNF-α.

HUVEC [5] = assay: S1P-mediated HUVEC tube formation assay; format: cell-based, human; conditions: treatment alone; branching points in 3 independent fields at 4× magnification
Method: For the tube formation assay, HUVEC from passage 2-8 are used and are never greater than 70% confluent before harvesting. Cells are prepared for the assay by washing with Herpes Balanced Saline Solution (HBSS from Clonetics) and then trypsinizing with Trypsin/EDTA (0.25 mg/ml, from Clonetics). After approximately 90% of the cells have lifted off the plate, an equal volume of Trypsin Neutralizing Solution (TNS from Clonetics) is added and the cells are collected into a conical tube containing at least 10 ml of EBM-2 (Clonetics)+0.1% BSA (Sigma) media Cells are centrifuged at 1000 rpm for 5 minutes and the supematant is removed and replaced with 5 ml of fresh EBM-2+0.1% BSA. Cells are counted using a hemacytometer and the volume of the cell suspension is adjusted to achieve a concentration of 500,000 cells/ml. Conical tubes are prepared with test compounds at 100 nM, and pertussin toxin (PTx) at 10 ng/ml in each, then 1 ml of the cell suspension is added to each tube. Tubes are then incubated for ½ hour at 37° C., 5% CO2. The migration assay is performed using Fluoro-Blok 24-Multiwell insert Plates coated with fibronectin (8 μm pore size, Falcon #351147) instead of the individual inserts in a 24-well plate. Cells and test compounds are prepared and pre-incubated as described above, then 100 μl is added to each approriate well in the Insert Plate. 300 μl of the EBM-2+2% charcoastripped media without S1P is added to the bottoms of the wells marked for no stimulation (−), and 300 μl of the media containing S1P (500 nM) is added to the bottoms of the wells marked for stimulation (+). The plate is then incubated for 4 hours at 37° C., 5% CO2. […]
After incubation, the plate is read on a Cytofluor II at an excitation of 485 nm and emission of 530 nm. The Fluoro-Blok coating in the inserts allows only the cells that have migrated to the bottom to be counted. […]
Tube formation is quantitated by counting the number of branching points (two independent cords connecting) in 3 independent fields at 4× magnification.

In the case of `CCCCCCCOc1ccc(CCC(C)(N)CO)cc1` (stereo not shown) [Compound C—HCl, 2-amino-4-(4heptyloxyphenyl)-2-methyl-butanol], the T/C% [1] is reported as 35%, the T/C% [2] is reported as 66% and the “final T/C value” ([3]; 2.5 mg/kg 5×/week) is reported as 30%.
`CCCCCCCCCCCCC/C=C/[C@@H](O)[C@@H](N)CO` [S, sphingosine, reference compound] was tested, and the MAP kinase activation (ERK½ MAP kinases) was “Neither Compound A nor S are able to induce MAP kinase activation”, the “effect on the VEGF-induced tube formation” value (HUVEC [4]; 1 μM) was “without having an inhibitory effect” and the “effect on the ability of S1P and Compound A-phosphate to induce capillary-like structures” value (HUVEC [4]; 1 μM) was “attenuates”. The “potency to induce capillary-like structures” value (HUVEC [4]; 1 μM, compared with S1P) was “less potent than S1P”, the “effect on VEGF-triggered tube formation” value (HUVEC [4]) was “inhibited” and the “effect on VEGF-triggered tube formation” value (HUVEC [4]; listed as sphingosine) was “inhibits”. The tissue factor activity (tissue factor) was “none of these compounds alone or in combinations may elevate tissue factor activity”.
`CCCCCCCOc1ccc(CCC(C)(N)CO)cc1` (stereo not shown) [Compound C, 2-amino-4-(4heptyloxyphenyl)-2-methyl-butanol] was tested, and the “tumor growth vs saline control” value ([3]; hydrochloride salt form, 0.5 to 5 mg/kg, 2 week treatment) was “slows tumor growth”.
In the case of `Clc1ccc(Nc2nnc(Cc3ccncc3)c3ccccc23)cc1.O=C(O)CCC(=O)O` [1-(4-chloroanilino)-4-(4-pyridylmethyl)phthalazine succinate, reference compound], the T/C% [1] is reported as 44% and the T/C% [2] is reported as 91%.
For pertussis toxin [reference compound], the “inhibition of Compound A-phosphate- and S1P-stimulated tube formation” value (HUVEC [4]; PTX 50 ng/ml) was “practically completely inhibited”.
With `CCCCCCCCCCCCC/C=C/[C@@H](O)[C@@H](N)COP(=O)(O)O` [Compound S1P, sphingosine-1-phosphate, reference compound] the “Branching Points” value (HUVEC [5]) was 42 ± 13 and the tissue factor activity (tissue factor) was “none of these compounds alone or in combinations may elevate tissue factor activity”.
